Experimental data as given in patent publication US11046714B2, “2,2-difluorodioxolo A2A receptor antagonists” (Merck Sharp & Dohme Corp., priority 2013, dated 2021).

Target: human A2A receptor (Homo sapiens (Human), UniProt P29274)
Test: competition binding assay using Scintillation Proximity technology
Details: membranes from CHO-K1 cells expressing the human A2a receptor; 2.0 nM tritiated compound; Cheng-Prusoff
Method in brief: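 Membranes (1.0 μg) from CHO-K1 cells expressing human A2A were treated with adenosine deaminase, then incubated 1 h at room temperature with compound (3000–0.15 nM) and 2.0 nM tritiated SCH-type ligand on WGA SPA beads in PBS plus 10 mM MgCl2. Nonspecific binding was defined with 1 μM CGS 15943. Ki was derived from EC50 via Cheng-Prusoff.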

human A2A receptor, sequence (P29274 whole entry): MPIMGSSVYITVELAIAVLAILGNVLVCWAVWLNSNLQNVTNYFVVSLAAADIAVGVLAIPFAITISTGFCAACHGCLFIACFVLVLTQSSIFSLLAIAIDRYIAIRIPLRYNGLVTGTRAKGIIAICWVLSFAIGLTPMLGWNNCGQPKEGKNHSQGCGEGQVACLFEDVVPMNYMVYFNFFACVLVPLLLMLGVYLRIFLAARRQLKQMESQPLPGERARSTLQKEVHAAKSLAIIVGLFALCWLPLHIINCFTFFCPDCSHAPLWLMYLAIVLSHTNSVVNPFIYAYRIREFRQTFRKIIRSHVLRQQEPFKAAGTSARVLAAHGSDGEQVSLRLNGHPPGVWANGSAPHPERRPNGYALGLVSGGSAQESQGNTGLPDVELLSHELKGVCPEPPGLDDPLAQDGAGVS

Ki [nM]	Structure (SMILES)
3.7	COCCOc1ccc(N2CCN(Cc3nc4c5ccc6c(c5nc(N)n4n3)OC(F)(F)O6)C3(CC3)C2)cc1 [Example 105, 2,2-difluoro-8-({7-[4-(2-methoxyethoxy)phenyl]-4,7-diazaspiro[2.5]oct-4-yl}methyl) [1,3]dioxolo[4,5-h][1,2,4]triazolo [1,5-c]quinazolin-5-amine]
2.1	C[C@@H]1CN(c2ccc(F)cc2)CCN1Cc1nc2c3ccc4c(c3nc(N)n2n1)OC(F)(F)O4 [Example 106, 2,2-difluoro-8-{[(2R)-4-(4-fluorophenyl)-2-methylpiperazin-1-yl]methyl}[1,3]dioxolo[4,5-h][1,2,4] triazolo[1,5-c]quinazolin-5-amine]
4	Cc1ncc(N2CCN(Cc3nc4c5ccc6c(c5nc(N)n4n3)OC(F)(F)O6)[C@H](C)C2)s1 [Example 107, 2,2-difluoro-8-{[(2R)-2-methyl-4-(2-methyl-1,3-thiazol-5-yl)piperazin-1-yl]methyl}[1,3]dioxolo[4,5-h][1,2,4] triazolo[1,5-c]quinazolin-5-amine]
7.5	C[C@@H]1CN(c2nsnc2Cl)CCN1Cc1nc2c3ccc4c(c3nc(N)n2n1)OC(F)(F)O4 [Example 108, 8-{[(2R)-4-(4-chloro-1,2,5-thiadiazol-3-yl)-2-methylpiperazin-1-yl]methyl}-2,2-difluoro[1,3] dioxolo[4,5-h][1,2,4]triazolo[1,5-c]quinazolin-5-amine]
5.9	Nc1nc2c3c(ccc2c2nc(CN4CC(F)(F)C4)nn12)OC(F)(F)O3 [Example 109, 8-((3,3-difluoroazetidin-1-yl)methyl)-2,2-difluoro-[1,3]dioxolo[4,5-h][1,2,4]triazolo[1,5-c]quinazolin-5-amine]
2.9	CC1(C)CN(Cc2nc3c4ccc5c(c4nc(N)n3n2)OC(F)(F)O5)C1 [Example 110, 8-[(3,3-dimethylazetidin-1-yl)methyl]-2,2-difluoro[1,3]dioxolo[4,5-h][1,2,4]triazolo[1,5-c]quinazolin-5-amine]
1.4	CC1(F)CN(Cc2nc3c4ccc5c(c4nc(N)n3n2)OC(F)(F)O5)C1 [Example 111, 2,2-difluoro-8-[(3-fluoro-3-methylazetidin-1-yl)methyl][1,3] dioxolo[4,5-h][1,2,4]triazolo[1,5-c]quinazolin-5-amine]
2	CCC1(F)CN(Cc2nc3c4ccc5c(c4nc(N)n3n2)OC(F)(F)O5)C1 [Example 112, 8-[(3-ethyl-3-fluoroazetidin-1-yl)methyl]-2,2-difluoro[1,3] dioxolo[4,5-h][1,2,4]triazolo[1,5-c]quinazolin-5-amine]
2.8	Nc1nc2c3c(ccc2c2nc(CN4CC(O)(C(F)(F)F)C4)nn12)OC(F)(F)O3 [Example 113, 11-[(5-amino-2,2-difluoro[1,3]dioxolo [4,5-h][1,2,4]triazolo[1,5-c]quinazolin-8-yl)methyl]-3-(trifluoromethyl) azetidin-3-ol]
1.4	Nc1nc2c3c(ccc2c2nc(CN4CC(F)(C(F)(F)F)C4)nn12)OC(F)(F)O3 [Example 114, 2,2-difluoro-8-{[3-fluoro-3-(trifluoromethyl)azetidin-1-yl]methyl} [1,3]dioxolo[4,5-h][1,2,4]triazolo[1,5-c]quinazolin-5-amine]
4.4	Nc1nc2c3c(ccc2c2nc(CN4C[C@H](F)[C@@H](F)C4)nn12)OC(F)(F)O3 [Example 115, 8-{[(3S,4S)-3,4-difluoropyrrolidin-1-yl]methyl}-2,2-difluoro[1,3] dioxolo[4,5-h][1,2,4]triazolo[1,5-c]quinazolin-5-amine]
1.8	Nc1nc2c3c(ccc2c2nc(CN4CCC(F)(F)C4)nn12)OC(F)(F)O3 [Example 116, 8-[(3,3-difluoropyrrolidin-1-yl)methyl]-2,2-difluoro[1,3]dioxolo[4,5-h][1,2,4] triazolo[1,5-c]quinazolin-5-amine]
4.9	Nc1nc2c3c(ccc2c2nc(CN4CCC(Oc5ccc(F)cc5)CC4)nn12)OC(F)(F)O3 [Example 117, 2,2-difluoro-8-{[4-(4-fluorophenoxy)piperidin-1-yl]methyl}[1,3]dioxolo [4,5-h][1,2,4]triazolo[1,5-c]quinazolin-5-amine]
